From ChEMBL document CHEMBL1150065, “Isolation of picropolygamain from the resin of Bursera simaruba” (J Nat Prod, 1992)

Experiments:
A549 = assay: Cytotoxicity against human A549 cells; assay type: functional
MCF7 = assay: Cytotoxicity against human MCF7 cells; assay type: functional
HT-29 = assay: Cytotoxicity against human HT-29 cells; assay type: functional
Artemia = assay: Toxicity in brine shrimp; assay type: organism-based

SMILES | ED50 (A549) [×10⁻⁴ ug/ml] | ED50 (MCF7) [×10⁻⁴ ug/ml] | ED50 (HT-29) [×10⁻⁴ ug/ml] | IC50 (Artemia) [ppm] | EC50 (A549; Homo sapiens, A549, read-out: ED50 (the source's name)) [mg/L] | EC50 (MCF7; Homo sapiens, MCF7, read-out: ED50 (the source's name)) [mg/L] | EC50 (HT-29; Homo sapiens, HT-29, read-out: ED50 (the source's name)) [mg/L]
COc1cccc2c1C(=O)c1c(O)c3c(c(O)c1C2=O)C[C@@](O)(C(=O)CO)C[C@@H]3O[C@H]1C[C@H](N)[C@H](O)[C@H](C)O1 [DOXORUBICIN] | 4.09 | 1.05 | 1.12 | – | – | – | –
O=C1OC[C@@H]2Cc3cc4c(cc3[C@@H](c3ccc5c(c3)OCO5)[C@H]12)OCO4 [PICROPOLYGAMAIN] | – | – | – | 52.2 | < 0.01 | < 0.01 | < 0.01
